From the supplement of paper PMC6045584
± gives the standard deviation of the averaged measurements.

Columns and labels:
SUNITINIB = compound: CCN(CC)CCNC(=O)c1c(C)[nH]c(/C=C2\C(=O)Nc3ccc(F)cc32)c1C [SUNITINIB]; assay: surviving fraction relative to DMSO-only wells; higher = less growth inhibition; settings: exposure time: 5 days
Procedure, shortened: (§1)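 Lines were retained only if, across three screens, replicate Pearson r was >0.7 and median Z' was >0.3. Viability was measured as CellTiter-Glo luminescence and reported as surviving fraction relative to the median of DMSO-only wells. Readings followed 10 minutes at room temperature, after log-phase tumour cells seeded at 250–500 per well in 384-well plates had been exposed, from 24 hours after seeding, continuously for five days to inhibitors at 0.5, 1, 5, 10, 50, 100, 500 and 1000 nM.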

[1] = compound: O=C(NOCC1CC1)c1ccc(F)c(F)c1Nc1ccc(I)cc1Cl; assay: as above; settings: exposure time: 5 days
Procedure, shortened: as §1

Row | Test System | surviving fraction (SUNITINIB; 0.5 nM) | surviving fraction (SUNITINIB; 1 nM) | surviving fraction (SUNITINIB; 5 nM) | surviving fraction (SUNITINIB; 10 nM) | surviving fraction (SUNITINIB; 100 nM) | surviving fraction (SUNITINIB; 500 nM) | surviving fraction (SUNITINIB; 1000 nM) | surviving fraction ([1]; 0.5 nM) | surviving fraction ([1]; 1 nM) | surviving fraction ([1]; 5 nM) | surviving fraction ([1]; 10 nM) | surviving fraction ([1]; 50 nM) | surviving fraction ([1]; 100 nM) | surviving fraction ([1]; 500 nM) | surviving fraction ([1]; 1000 nM) | surviving fraction (SUNITINIB; 50 nM)
1 | HSSYII SYNOVIAL | 0.771 ± 0.076 | 0.694 ± 0.029 | 0.755 ± 0.012 | 0.216 ± 0.01 | 0.765 ± 0.045 | 0.418 ± 0.02 | 0.114 ± 0.0013 | 0.526 ± 0.017 | 0.847 ± 0.035 | 0.872 ± 0.041 | 0.928 ± 0.074 | 0.663 ± 0.059 | 0.807 ± 0.058 | 0.82 ± 0.038 | 0.821 ± 0.022 | –
2 | CADOES1 SOFT TISSUE | – | 0.976 ± 0.12 | 0.892 ± 0.044 | 0.967 ± 0.083 | 1.03 ± 0.032 | – | 0.609 ± 0.11 | 0.913 ± 0.11 | 0.844 ± 0.075 | 0.894 ± 0.15 | 0.86 ± 0.081 | 0.903 ± 0.061 | 0.918 ± 0.1 | 0.875 ± 0.14 | 0.746 ± 0.14 | 0.885 ± 0.086
3 | ZR751 BREAST | – | 1.1 ± 0.16 | 1.15 ± 0.083 | – | – | 1.22 ± 0.16 | – | 0.804 ± 0.14 | 0.868 ± 0.022 | 0.806 ± 0.049 | 0.814 ± 0.056 | 0.697 ± 0.071 | 0.846 ± 0.03 | 0.677 ± 0.03 | 0.682 ± 0.011 | 1.31 ± 0.25
4 | 143B BONE | 0.982 ± 0.044 | 1.01 ± 0.026 | 1.01 ± 0.022 | 1.02 ± 0.035 | 1.008 ± 0.0042 | 0.824 ± 0.067 | 0.461 ± 0.055 | 0.887 ± 0.14 | 0.98 ± 0.0057 | 0.97 ± 0.018 | 1 ± 0.037 | 0.857 ± 0.13 | 0.957 ± 0.037 | 0.841 ± 0.028 | 0.542 ± 0.021 | 1.01 ± 0.019
5 | HCC202 BREAST | 0.879 ± 0.093 | 0.806 ± 0.23 | 1.29 ± 0.32 | 0.801 ± 0.19 | – | 0.714 ± 0.15 | 0.639 ± 0.06 | 1.38 ± 0.41 | 1.49 ± 0.64 | 1.47 ± 0.2 | 1.28 ± 0.26 | 1.46 ± 0.16 | 1.31 ± 0.099 | 1.37 ± 0.38 | 1.57 ± 0.043 | 1.26 ± 0.17
6 | LM7 BONE | 0.786 ± 0.068 | 0.767 ± 0.028 | 0.81 ± 0.087 | 0.731 ± 0.05 | 0.794 ± 0.016 | 0.342 ± 0.009 | 0.177 ± 0.018 | 0.983 ± 0.049 | 1.01 ± 0.041 | 1.1 ± 0.12 | 1 ± 0.024 | 1.02 ± 0.073 | 0.943 ± 0.1 | 0.821 ± 0.011 | 0.853 ± 0.089 | 0.93 ± 0.039
7 | CAL120 BREAST | 0.881 ± 0.021 | 0.882 ± 0.036 | 0.876 ± 0.047 | – | 0.891 ± 0.038 | 0.64 ± 0.039 | 0.386 ± 0.037 | 0.928 ± 0.018 | 0.9302 ± 0.008 | 0.966 ± 0.025 | 0.908 ± 0.015 | 0.899 ± 0.036 | 0.898 ± 0.015 | 0.8322 ± 0.0043 | 0.805 ± 0.01 | 0.891 ± 0.023
8 | HELA CERVIX | 0.906 ± 0.047 | 0.892 ± 0.046 | – | 0.853 ± 0.069 | 0.948 ± 0.052 | 1.03 ± 0.035 | 0.745 ± 0.05 | 0.961 ± 0.057 | 1.01 ± 0.09 | 0.97 ± 0.07 | 0.964 ± 0.08 | 1.02 ± 0.012 | 1.08 ± 0.055 | 1.09 ± 0.077 | 1.12 ± 0.025 | 0.995 ± 0.044
9 | YAMATO SYNOVIAL | – | 0.392 ± 0.031 | 0.586 ± 0.058 | 0.0847 ± 0.0081 | 0.583 ± 0.021 | 0.588 ± 0.046 | 0.0633 ± 0.0023 | 0.319 ± 0.026 | 1.07 ± 0.11 | 0.9 ± 0.084 | 1.2 ± 0.044 | 0.483 ± 0.013 | 1.1 ± 0.14 | 0.789 ± 0.064 | 0.928 ± 0.049 | –
